From PubChem BioAssay (NCI)
“And” between values parts separate entries of the source, which are not always exact repeats. Equal values may be shown once.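 Following 48 hours of exposure in 96-well plates, responses at five concentrations were used to interpolate endpoints linearly. GI50 is the concentration that inhibits growth by half. TGI: total growth inhibition.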

Experiments:
Assay in all cases: growth of human tumour cells (NCI), 48 h
[1] = test system: HL-60(TB) leukemia
[2] = test system: MCF7 breast
[3] = test system: COLO 205 colon
[4] = test system: SF-295 CNS
[5] = test system: LOX IMVI melanoma
[6] = test system: PC-3 prostate
[7] = test system: MOLT-4 leukemia
[8] = test system: SK-OV-3 ovarian
[9] = test system: SF-539 CNS
[10] = test system: HCC-2998 colon

| Structure (SMILES) | GI50 [1] | TGI [1] | GI50 [2] | TGI [2] | GI50 [3] | TGI [3] | GI50 [4] | TGI [4] | GI50 [5] | TGI [5] | GI50 [6] | TGI [6] | GI50 [7] | TGI [7] | GI50 [8] | TGI [8] | GI50 [9] | TGI [9] | TGI [10] | GI50 [10] |
| --- | --- | --- | --- | --- | --- | --- | --- | --- | --- | --- | --- | --- | --- | --- | --- | --- | --- | --- | --- | --- |
| N#CC1=C(N)N=C(N2CCCCC2)C(C#N)C12Nc1ccccc1S2 (stereo unspecified) | 85.4 µM | > 100 µM | 44.9 µM | > 100 µM | 29.3 µM | 82.6 µM | 37.7 µM | > 100 µM | 20700 nM | 51.8 µM | 50500 nM | > 100 µM | > 100000 nM | > 100 µM | 39.1 µM | > 100 µM | 30.7 µM | 75.4 µM |  |  |
| COc1cc2c(c(OC)c1OC)-c1ccc(SC)c(=O)cc1[C@@H](NC(=O)c1ccc(OC(C)=O)cc1)CC2 |  | 20.5 µM |  |  |  | 0.0405 µM |  |  |  | 0.0539 µM |  |  |  | > 100 µM |  | 0.0683 µM and 0.0201 µM |  | 0.0357 µM | 0.0549 µM |  |
| COc1ccc(C2S/C(=C\c3cc(OC)c(OC)c(OC)c3)C(=O)N2NC(=O)Cc2ccccc2)cc1 (stereo unspecified) |  | > 100 µM |  |  |  | > 100 µM |  | > 100 µM |  | > 100 µM |  |  |  | > 100 µM |  | > 100 µM |  | > 100 µM |  |  |
| C=C1C(=O)O[C@@H]2C1C[C@@H](O)/C(C)=C/C/C=C(\C)CCC[C@H](C)[C@H]2OC(C)=O (stereo partly specified) |  |  | 20 µM | 46.2 µM | 40.4 µM | > 100 µM | > 100 µM | > 100 µM | 21900 nM | 47.2 µM | 21400 nM | 51.3 µM |  |  | 69.3 µM | > 100 µM | 20.4 µM | 39.9 µM | > 100 µM | 31.7 µM |
| COc1ccc(/C=C\c2cc(OC)c(OC)c(OC)c2)cc1OC(=O)C(N)CCC(=O)O (stereo unspecified) | 0.00017 µM | 0.000422 µM and 0.00275 µM | 0.00503 µM | > 100 µM |  |  |  |  | 0.605 nM and 0.284 nM and < 0.1 nM | > 33.9 µM | 1.25 nM and 0.357 nM |  | 2.44 nM |  |  | > 100 µM | 0.000814 µM | 0.000166 µM |  |  |
| O=C(O)c1c2c(c(C(=O)O)c3ccccc13)-c1ccccc1-2 |  | > 100 µM |  |  |  | > 100 µM |  | > 100 µM |  | > 100 µM |  |  |  | > 100 µM |  | 94.8 µM |  | 85.5 µM | > 100 µM |  |
| CCCc1ccc(S(=O)(=O)N[C@H]2CC[C@H]3[C@@H]4CCc5cc(O)ccc5[C@H]4CC[C@]23C)cc1 |  |  | 2.66 µM | 7.29 µM | 1.84 µM | 3.28 µM | 3.06 µM | 10.9 µM | 1720 nM | 3.17 µM | 2520 nM | 11.7 µM | 2360 nM | 9.18 µM | 3.65 µM | 12.4 µM | 2.12 µM | 4.46 µM | 13.7 µM | 4 µM |
| Cc1nc2c(=O)[nH]c(=O)n(C)c2[nH]c1=O |  | > 100 µM |  |  |  | > 100 µM |  |  |  | > 100 µM |  |  |  | > 100 µM |  | > 100 µM |  |  | > 100 µM |  |
| O=[N+]([O-])c1ccc(Sc2c3ccccc3nc3ccccc23)cc1 |  | > 100 µM |  |  |  | > 100 µM |  | > 100 µM |  | > 100 µM |  |  |  | > 100 µM |  |  |  | > 100 µM | > 100 µM |  |
| COC1/C(=C\C(=O)OC(C)(C)C)c2ccccc2N1C(C)=O (stereo unspecified) |  | > 100 µM |  |  |  | > 100 µM |  | > 100 µM |  |  |  |  |  | > 100 µM |  | > 100 µM |  | > 100 µM | > 100 µM |  |
| COc1ccc(C(=O)C(c2ccc(OC)cc2)C2(O)C(=O)Nc3c(C)cc(Cl)cc32)cc1 (stereo unspecified) |  | > 100 µM |  |  |  | > 100 µM |  | > 100 µM |  |  |  |  |  | 54.5 µM |  | > 100 µM |  | > 100 µM | > 100 µM |  |
| Cc1cc(O)c(C(=O)CC2(O)C(=O)Nc3c(Cl)cc(Cl)cc32)c(=O)o1 (stereo unspecified) |  | > 100 µM |  |  |  | > 100 µM |  | > 100 µM |  |  |  |  |  | > 100 µM |  | > 100 µM |  | > 100 µM | > 100 µM |  |
| COC(=O)/C=C(C)/C=C/c1cc(C(C)=O)c(C)o1 |  | > 100 µM |  |  |  |  |  | > 100 µM |  | > 100 µM |  |  |  | > 100 µM |  | > 100 µM |  | > 100 µM | > 100 µM |  |
| CC(C)=CC(=O)Oc1ccc([N+](=O)[O-])cc1 |  | 59.5 µM |  |  |  | > 100 µM |  | > 100 µM |  |  |  |  |  | > 100 µM |  | > 100 µM |  | > 100 µM | > 100 µM |  |
| C[C@@H]1O[C@@H](O[C@@H]2[C@@H](O)[C@H](OCCc3ccc(O)c(O)c3)O[C@H](COC(=O)/C=C/c3ccc(O)c(O)c3)[C@H]2O)[C@H](O)[C@H](O)[C@H]1O | 54.4 µM | > 100 µM |  |  | > 100 µM | > 100 µM | > 100 µM | > 100 µM | 18300 nM | 34.4 µM | 524 nM | > 100 µM | > 100000 nM | > 100 µM | > 100 µM | > 100 µM | > 100 µM | > 100 µM |  |  |
| COc1ccc(/C=C2\CN(C(=O)C(Cl)Cl)C/C(=C\c3ccc(OC)c(OC)c3)C2=O)cc1OC | 0.221 µM | 0.711 µM |  |  | 0.307 µM | 1.6 µM | 0.243 µM | 0.803 µM | 28.2 nM | 0.0965 µM | 301 nM | 2.4 µM | 135 nM | > 100 µM | 2.46 µM | > 100 µM |  |  | 1.44 µM | 0.39 µM |
| CC1(CO)OC1COCc1ccccc1 (stereo unspecified) |  | > 100 µM |  |  |  | > 100 µM |  | > 100 µM |  | > 100 µM |  |  |  | > 100 µM |  | > 100 µM |  | > 100 µM |  |  |
| CC(=O)NC1=C(Nc2ccc(C)cc2)C(=O)c2ccccc2C1=O |  | 41.1 µM |  |  |  | 45.3 µM |  | 54.7 µM |  | 21.3 µM |  |  |  | 56.5 µM |  | > 75 µM |  | 33 µM | > 75 µM |  |
| CCOC(=O)Cc1csc(/N=C2\NC(=O)/C(=C3\C(=O)N(C)c4ccccc43)S2)n1 |  |  | 46.8 µM | > 100 µM | 48.7 µM | > 100 µM | 29.8 µM | 87 µM | 34600 nM | > 100 µM | 34100 nM | > 100 µM | 40300 nM | > 100 µM | > 100 µM | > 100 µM | 43.8 µM | > 100 µM | > 100 µM | 46.1 µM |
| Cn1nc(-c2ccccc2)c(N=[N+]=[N-])cc1=O |  | > 100 µM |  |  |  | > 100 µM |  | > 100 µM |  | > 100 µM |  |  |  | > 100 µM |  | > 100 µM |  | > 100 µM | > 100 µM |  |
